Measured values as given in the supplement of paper PMC13380429.

Experiments:
Conditions in all cases: 72 h
Caco-2 [1] = test: cell viability relative to DMSO; higher = less toxic
U2OS [2] = test: as above
HepG2 [3] = test: as above
Calu-3 [4] = test: as above
Caco-2 [5] = test: relative viability EC50 (midpoint between 100% and the lowest measured viability); higher = less toxic
U2OS [6] = test: as above
HepG2 [7] = test: as above
Calu-3 [8] = test: as above
Caco-2 [9] = test: drug sensitivity score (DSS) for viability; higher = more toxic; extreme values may be limits of the assay
U2OS [10] = test: as above
HepG2 [11] = test: as above
Calu-3 [12] = test: as above
Vero E6 [13] = test: cell viability relative to DMSO; higher = less toxic
Vero E6 [14] = test: relative viability EC50 (midpoint between 100% and the lowest measured viability); higher = less toxic
Vero E6 [15] = test: drug sensitivity score (DSS) for viability; higher = more toxic; extreme values may be limits of the assay

Compound	cell viability (Caco-2 [1]; 1 nM) [%]	cell viability (Caco-2 [1]; 10 nM) [%]	cell viability (Caco-2 [1]; 100 nM) [%]	cell viability (Caco-2 [1]; 1000 nM) [%]	cell viability (Caco-2 [1]; 10000 nM) [%]	cell viability (U2OS [2]; 1 nM) [%]	cell viability (U2OS [2]; 10 nM) [%]	cell viability (U2OS [2]; 100 nM) [%]	cell viability (U2OS [2]; 1000 nM) [%]	cell viability (U2OS [2]; 10000 nM) [%]	cell viability (HepG2 [3]; 1 nM) [%]	cell viability (HepG2 [3]; 10 nM) [%]	cell viability (HepG2 [3]; 100 nM) [%]	cell viability (HepG2 [3]; 1000 nM) [%]	cell viability (HepG2 [3]; 10000 nM) [%]	cell viability (Calu-3 [4]; 1 nM) [%]	cell viability (Calu-3 [4]; 10 nM) [%]	cell viability (Calu-3 [4]; 100 nM) [%]	cell viability (Calu-3 [4]; 1000 nM) [%]	cell viability (Calu-3 [4]; 10000 nM) [%]	relative viability EC50 (Caco-2 [5]) [µM]	relative viability EC50 (U2OS [6]) [µM]	relative viability EC50 (HepG2 [7]) [µM]	relative viability EC50 (Calu-3 [8]) [µM]	drug sensitivity score (Caco-2 [9])	drug sensitivity score (U2OS [10])	drug sensitivity score (HepG2 [11])	drug sensitivity score (Calu-3 [12])	cell viability (Vero E6 [13]; 1 nM) [%]	cell viability (Vero E6 [13]; 10 nM) [%]	cell viability (Vero E6 [13]; 100 nM) [%]	cell viability (Vero E6 [13]; 1000 nM) [%]	cell viability (Vero E6 [13]; 10000 nM) [%]	relative viability EC50 (Vero E6 [14]) [µM]	drug sensitivity score (Vero E6 [15])
C=CCN1CCc2cc(O)c(O)cc2[C@H](c2ccccc2)C1	95.1	91.8	86.5	99.5	79.4	99.7	99.3	96.9	102	92.8	100	93.3	105	92.5	86.9	89.8	92	103	103	99	> 10	> 10	> 10	> 10	0.7	0	0.5	0							
N#Cc1ccccc1OCC(O)CNCCNC(=O)Nc1ccccc1 (configuration not stated)	101	102	91.4	99.5	101	99.5	94.3	95.3	95.7	97.1	108	102	110	107	93.6	100	94.7	102	92.8	92.4	> 10	> 10	> 10	> 10	0	0	0	0							
COc1ccc2c(O[C@@H]3C[C@H]4C(=O)N[C@]5(C(=O)NS(=O)(=O)C6CC6)C[C@H]5/C=C\CCCCN(C)C(=O)[C@@H]4C3)cc(-c3nc(C(C)C)cs3)nc2c1C [simeprevir]	94.8	100	112	102	70.8	104	98.8	99.9	99.4	105	102	99.4	92.7	101	81.5	94.9	99.7	88.7	100	102		> 10	> 10	> 10	1.1	0	0.4	0	102	105	95.4	101	102	> 10	0
O=C(NCNC(=O)NC1C(=O)NC(=O)N1CO)NC1C(=O)NC(=O)N1CO (configuration not stated) [imidurea]	90.7	95.4	98.7	98	103	103	97.3	102	98.3	102	104	97.3	89.8	98.1	82.9	94.4	98.1	104	103	95.6	> 10	> 10	> 10	> 10	0	0	0.3	0							
CCCOC(=O)c1ccccc1 [propyl-benzoate]											98.7	98.2	94.7	93	94.4	98.5	90.6	98.2	99.1	102			> 10	> 10			0	0	94.3	94.6	91.8	90.3	101	> 10	0
CCCCCCN(CCCCCC)C(=O)Cc1c(-c2ccc(F)cc2)[nH]c2ccccc12 [FGIN-1-27]	99.5	99.6	89.2	94.3	68.6	98.5	102	103	100	92.3	104	95.2	94.3	106	96.6	96	99.2	99.8	102	89		> 10	> 10	> 10	2.2	0	0	0	98.6	94.5	94	95.2	92.8	> 10	0
COc1cc2c(N3CCN(C(=O)Nc4ccc(OC(C)C)cc4)CC3)ncnc2cc1OCCCN1CCCCC1 [tandutinib]	113	102	112	105	98.2						110	112	112	109	84.1	109	97	94.7	108	111	> 10		> 10	> 10	0		0.1	0							
CC(=O)Oc1c(C)cc(OCC(O)CNC(C)C)c(C)c1C (configuration not stated) [metipranolol]	73.8	84.6	102	98.7	70.3	99.1	97.3	96.2	93.9	93.8	101	102	105	84	93.3	94.6	89.8	97.7	96.1	92.9		> 10	> 10	> 10	1.3	0	1.5	0	103	107	94.6	85.8	97.5	> 10	1.6
O=C(Nc1ccncc1)C(=O)c1cn(Cc2ccc(Cl)cc2)c2ccccc12 [indibulin]	75	84	94.9	82.9	92.2	111	99	97.2	95.4	90.9	91.6	107	94.9	91.3	94.5	97.9	95	110	102	104	> 10	> 10	> 10	> 10	0	0	0	0	75.1	104	79.4	97.3	66.1		2
COc1ccc2c(NC(=O)Nc3cccc(C(F)(F)F)n3)ccnc2c1	97.7	106	100	95.5	93.4	102	96.6	106	101	104	108	108	93.8	105	95.6	97.6	99	96.1	94.8	93.6	> 10	> 10	> 10	> 10	0	0	0	0							
Cc1cc(/C=C/C#N)cc(C)c1Nc1ccnc(Nc2ccc(C#N)cc2)n1 [rilpivirine]	97.8	98	93.3	87.3	61.4	94.8	99.1	99.6	95.4	80.5	98.9	99.8	99.5	96.9	47.7	97	93.7	99.8	95.6	92.7		> 10	2.69	> 10	3.1	1.1	3.2	0	100	100	96.8	98.5	70.5		1.5
CCCCCCCCCCCCCCCC(=O)OC(CC(=O)[O-])C[N+](C)(C)C (configuration not stated) [palmitoylcarnitine]	110	102	102	92.5	93	103	104	99.9	100	102	99.3	96.8	107	95.8	94.9	98.3	94.3	100	97	84.2	> 10	> 10	> 10	> 10	0	0	0	0.6	96.2	104	104	99.6	73		1.1
